In patent publication US11220524B2, “Selective inhibitors of protein arginine methyltransferase 5 (PRMT5)” (PRELUDE THERAPEUTICS, INCORPORATED, priority 2017, dated 2022) one finds IC50 data, which are given here for 18 molecules.

Structures can show the parent of a compound that is named as a salt.

In one test the target is PRMT5/MEP50 complex (Homo sapiens (Human), UniProt O14744). In words: Biochemical assay: PRMT5/MEP50 methylation of histone H2A with 3H-SAM, filter plate scintillation. The conditions noted are these: biochemical potency; read-out: PRTMT5/MEP50 IC50. On the procedure: Biochemical Assay Protocol
Sequence of PRMT5/MEP50 complex (O14744 whole entry): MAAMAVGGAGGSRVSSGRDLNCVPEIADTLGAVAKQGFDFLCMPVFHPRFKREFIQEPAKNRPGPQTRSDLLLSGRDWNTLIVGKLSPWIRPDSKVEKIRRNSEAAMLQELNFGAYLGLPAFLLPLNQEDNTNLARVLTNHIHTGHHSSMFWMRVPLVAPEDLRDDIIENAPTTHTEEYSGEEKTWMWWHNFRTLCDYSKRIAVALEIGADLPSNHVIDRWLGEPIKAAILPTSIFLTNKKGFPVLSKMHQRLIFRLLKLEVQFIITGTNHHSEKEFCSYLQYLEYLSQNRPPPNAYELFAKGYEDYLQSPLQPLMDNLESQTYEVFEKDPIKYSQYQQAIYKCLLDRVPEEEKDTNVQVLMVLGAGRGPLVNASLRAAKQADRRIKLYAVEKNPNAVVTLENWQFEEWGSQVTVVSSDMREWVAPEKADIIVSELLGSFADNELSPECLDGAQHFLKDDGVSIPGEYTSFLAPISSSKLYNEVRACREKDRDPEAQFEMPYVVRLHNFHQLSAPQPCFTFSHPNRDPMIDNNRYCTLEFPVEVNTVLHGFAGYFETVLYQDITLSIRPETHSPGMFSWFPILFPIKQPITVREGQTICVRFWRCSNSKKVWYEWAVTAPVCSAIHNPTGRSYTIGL
Sequence of PRMT5/MEP50 complex (Q9BQA1 whole entry partner): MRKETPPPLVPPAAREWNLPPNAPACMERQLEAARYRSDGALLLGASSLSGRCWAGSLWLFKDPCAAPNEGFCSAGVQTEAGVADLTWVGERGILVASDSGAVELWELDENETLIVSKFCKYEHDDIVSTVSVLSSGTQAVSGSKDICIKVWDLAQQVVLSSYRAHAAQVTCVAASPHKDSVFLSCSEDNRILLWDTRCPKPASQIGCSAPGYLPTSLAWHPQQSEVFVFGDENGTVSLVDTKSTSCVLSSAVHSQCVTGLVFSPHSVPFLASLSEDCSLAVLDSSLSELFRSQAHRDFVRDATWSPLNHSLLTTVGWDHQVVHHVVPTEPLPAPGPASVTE
Compounds were solubilized, and 3-fold diluted in 100% DMSO. […] Standard reactions were performed in a total volume of […] assay buffer, with histone H2A (5 μM final) as substrate. To this was added the PRMT5/MEP50 complex diluted to provide a final assay concentration of 5 nM and the compounds were allowed to preincubate for 15 to 20 minutes at room temperature. The reaction was initiated by adding S-[3H-methyl]-adenosyl-L-methionine (PerkinElmer) to final concentration of 1 μM. Following a 60 minutes incubation at 30° C., the reaction was stopped by adding 100 μL of 20% TCA. Each reaction was spotted onto filter plate (MultiScreen FB Filter Plate, Millipore), and washed 5 times with PBS buffer, Scintillation fluid was added to the filter plate and read in a scintillation counter. IC50 values were determined by fitting the data to the standard 4 parameters with Hill Slope using GraphPad Prism software.

Test [1] relates to Symmetric Di-Methyl Arginine (sDMA) in Granta-519 cells. Nature of the test: Western blot for symmetric di-methyl arginine (sDMA) marks in Granta cells, 3 days treatment. As to conditions: Homo sapiens, 3 days. Format: cell-based. On the procedure: Cell Treatment and Western Blotting for Detecting Symmetric Di-Methyl Arginine (sDMA) and Histone H3R8 Dimethyl Symmetric (H3R8me2s) Marks
Initial compounds screening in A549 cells: Compounds were dissolved in DMSO to make 10 mM stock and further diluted to 0.1, and 1 mM. A549 cells were maintained in PRMI 1640 (Corning Cellgro, Catalog #: 10-040-CV) medium supplemented with 10% v/v FBS (GE Healthcare, Catalog #: SH30910.03). One day before experiment, 1.25×10^5 cells were seeded in 6 well plate in 3 mL medium and incubated overnight. The next day, medium was changed and 3 uL of compound solution was added (1:1,000 dilution, 0.1 and 1 uM final concentration; DMSO concentration: 0.1%), and incubated for 3 days. Cells incubated with DMSO was used as a vehicle control. Cells were washed once with PBS, trypsinized in 150 uL 0.25% Trypsin (Corning, Catalog #: 25-053-CI), neutralized with 1 mL complete medium, transferred to microcentrifuge tubes and collected. Cell pellet was then resuspended in 15 uL PBS, lysed in 4% SDS, and homogenized by passing through homogenizer column (Omega Biotek, Catalog #: HCR003). Total protein concentrations were determined by BCA assay (ThermoFisher Scientific, Catalog #: 23225). Lysates were mixed with 5× Laemmli buffer and boiled for 5 min. Forty ug of total protein was separated on SDS-PAGE gels (Bio-Rad, catalog #: 4568083, 4568043), transferred to PVDF membrane, blocked with 5% dry milk (Bio-Rad, Catalog #: 1706404) in TBS with 0.1% v/v Tween 20 (TBST) for 1 hour at room temperature (RT), and incubated with primary antibodies (sDMA: Cell signaling, Catalog #: 13222, 1:3,000; H3R8me2s: Epigentek, Catalog #: A-3706-100, 1:2,000; β-Actin: Abcam, Catalog #: ab8227, 1:10,000) in 5% dry milk in TBST at 4° C. for overnight. The next day, membranes were washed with TBST, 5×5 min, and incubated withhP conjugated seconded antibody (GE Healthcare; Catalog #: NA934-1ML; 1:5,000) for 2 hours at RT, followed by 5×5 min washes with TBST, and incubation with ECL substrates (Bio-Rad, Catalog #: 1705061, 1705062). Chemiluminescent signal was captured with FluoChem HD2 imager (Proteinsimple) and analyzed by ImageJ.
Cells incubated with DMSO was used as a vehicle control. Cells were harvested and subjected to western blot analysis as described above. SmD3me2s and H3R8me2s bands were quantified by ImageJ. Signals were normalized to β-Actin and DMSO control. IC50 values were calculated using Graphpad Prism.
On the technique in general: Immunoblotting shows a protein as a band on a membrane.

Where [2] appears, read: Granta-519, 72 h, Granta cell line.

In the case of `CC(c1ccc(Cl)cc1)C1O[C@@H](n2ccc3c(N)ncnc32)[C@H](O)[C@@H]1O` (stereo in doubt) [Example 6-C, (2R,3R,4S,5S)-2-(4-amino-7H-pyrrolo[2,3-d]pyrimidin-7-yl)-5-(1-(4-chlorophenyl)ethyl)tetrahydrofuran-3,4-diol], the results for the IC50 (on PRMT5/MEP50 complex; in test [1] (setting [2])) were 6.9 nM and 93 nM, respectively. On the same counts, the results for `Cc1cc([C@@](C)(O)[C@H]2O[C@@H](n3cnc4c(N)ncnc43)[C@H](O)[C@@H]2O)ccc1Cl` [Example 2-C, (2R,3R,4S,5S)-2-(6-amino-9H-purin-9-yl)-5-((R)-1-(4-chloro-3-methylphenyl)-1-hydroxyethyl)tetrahydrofuran-3,4-diol] are 13.5 nM and 13 nM. On the same counts, the results for `C[C@@](O)(c1ccc(Cl)c(Cl)c1)[C@H]1O[C@@H](n2cc(F)c3c(N)ncnc32)[C@H](O)[C@@H]1O` [Example 3-C, (2R,3R,4S,5S)-2-(4-amino-5-fluoro-7H-pyrrolo[2,3-d]pyrimidin-7-yl)-5-((R)-1-(3,4-dichlorophenyl)-1-hydroxyethyl)tetrahydrofuran-3,4-diol] are 0.9 nM and 3.8 nM. In the case of `C[C@@H](c1ccc(Cl)cc1)[C@H]1O[C@@H](n2ccc3c(N)ncnc32)[C@H](O)[C@@H]1O` [Example 5-C, (2R,3R,4S,5R)-2-(4-amino-7H-pyrrolo[2,3-d]pyrimidin-7-yl)-5-((S)-1-(4-chlorophenyl)ethyl)tetrahydrofuran-3,4-diolhydrochloride], the IC50 in test [1] (setting [2]) came to 91 nM. With `C[C@@](O)(c1ccc(Cl)c(F)c1)[C@H]1O[C@@H](n2cc(F)c3c(N)ncnc32)[C@H](O)[C@@H]1O` [Example 15-C, (2R,3R,4S,5S)-2-(4-amino-5-fluoro-7H-pyrrolo[2,3-d]pyrimidin-7-yl)-5-((R)-1-(4-chloro-3-fluorophenyl)-1-hydroxyethyl)tetrahydrofuran-3,4-diol], the results for the IC50 (on PRMT5/MEP50 complex; in test [1] (setting [2])) were 1 nM and 1.9 nM, respectively. On the same counts, the results for `C[C@@](O)(c1ccc(Cl)s1)[C@H]1O[C@@H](n2ccc3c(N)ncnc32)[C@H](O)[C@@H]1O` [Example 21-C, (2R,3R,4S,5S)-2-(4-amino-7H-pyrrolo[2,3-d]pyrimidin-7-yl)-5-((S)-1-(5-chlorothiophen-2-yl)-1-hydroxyethyl)tetrahydrofuran-3,4-diol] are 0.9 nM and 7 nM. As to `N/N=c1/nc[nH]c2c1ccn2[C@@H]1C[C@H]([C@H](O)c2ccc(Cl)cc2)[C@@H](O)[C@H]1O` [Example 25-B, 7-[(1R,2S,3R,4R)-4-[(S)-(4-chlorophenyl)-hydroxy-methyl]-2,3-dihydroxy-cyclopentyl]-1H-pyrrolo[2,3-d]pyrimidin-4-one hydrazone hydrochloride], the IC50 is 47 nM on PRMT5/MEP50 complex and about 3000 nM in test [1] (setting [2]).

Turning to `N/N=c1/nc[nH]c2c1ccn2[C@@H]1C[C@H]([C@H](O)c2ccc(F)c(F)c2)[C@@H](O)[C@H]1O` [Example 37-B, 7-[(1R,2S,3R,4R)-4-[(S)-(3,4-difluorophenyl)-hydroxy-methyl]-2,3-dihydroxy-cyclopentyl]-1H-pyrrolo[2,3-d]pyrimidin-4-one hydrazone hydrochloride], the figures for the IC50 (on PRMT5/MEP50 complex; in test [1] (setting [2])) were 6.3 nM and 100000 nM, respectively. On the same counts, the results for `O/N=c1/nc[nH]c2c1ccn2[C@@H]1C[C@H]([C@H](O)c2ccc(Cl)cc2)[C@@H](O)[C@H]1O` [Example 50-B, 7-[(1R,2S,3R,4R)-4-[(S)-(4-chlorophenyl)-hydroxy-methyl]-2,3-dihydroxy-cyclopentyl]-1H-pyrrolo[2,3-d]pyrimidin-4-one oxime hydrochloride] are 11.7 nM and about 600 nM. On the same counts, the results for `CN(N)c1ncnc2c1ccn2[C@@H]1C[C@H](CCc2ccc3ccc(NCC4CC4)nc3c2)[C@@H](O)[C@H]1O` [Example 79-B, (1S,2R,3S,5R)-3-(2-(2-((cyclopropylmethyl)amino)quinolin-7-yl)ethyl)-5-(4-(1-methylhydrazineyl)-7H-pyrrolo[2,3-d]pyrimidin-7-yl)cyclopentane-1,2-diol] are 8.2 nM and 97 nM. Consider `CCO/N=c1\nc[nH]c2c1ccn2[C@@H]1O[C@H]([C@](C)(O)c2ccc(Cl)cc2)[C@@H](O)[C@H]1O` [Example 83, 7-((2R,3R,4S)-5-((R)-1-(4-chlorophenyl)-1-hydroxyethyl)-3,4-dihydroxytetrahydrofuran-2-yl)-1,7-dihydro-4H-pyrrolo[2,3-d]pyrimidin-4-one O-ethyl oxime], for which the IC50 in test [1] (72 h, Granta-519 cell line) turned out to be 97 nM. Take `CNc1ccc2ccc(CC[C@H]3C[C@@H](n4ccc5/c(=N/OC)nc[nH]c54)[C@H](O)[C@@H]3O)cc2n1` [Example 84-B, 7-((1R,2S,3R,4S)-2,3-dihydroxy-4-(2-(2-(methylamino)quinolin-7-yl)ethyl)cyclopentyl)-1,7-dihydro-4H-pyrrolo[2,3-d]pyrimidin-4-one O-methyl oxime]: the IC50 at PRMT5/MEP50 complex stood at 2.7 nM; in test [1] (setting [2]) it was 16 nM. On the same counts, the results for `CO/N=c1\nc[nH]c2c1ccn2[C@@H]1C[C@H](CCc2ccc3ccc(N)nc3c2)[C@@H](O)[C@H]1O` [Example 85-B, 7-((1R,2S,3R,4S)-4-(2-(2-aminoquinolin-7-yl)ethyl)-2,3-dihydroxycyclopentyl)-1,7-dihydro-4H-pyrrolo[2,3-d]pyrimidin-4-one O-methyl oxime] are 0.64 nM and 0.9 nM. For `CO/N=c1\nc[nH]c2c1ccn2[C@@H]1C[C@H](CCc2ccc3cc(Cl)c(N)nc3c2)[C@@H](O)[C@H]1O` [Example 86-B, (Z)-7-((1R,2S,3R,4S)-4-(2-(2-amino-3-chloroquinolin-7-yl)ethyl)-2,3-dihydroxycyclopentyl)-3,7-dihydro-4H-pyrrolo[2,3-d]pyrimidin-4-one O-methyl oxime] the same measures were 0.2 nM and 3 nM.

Take `O/N=c1\nc[nH]c2c1ccn2[C@@H]1C[C@H](CCc2ccc3ccc(NCC4CC4)nc3c2)[C@@H](O)[C@H]1O` [Example 87-B, 7-((1R,2S,3R,4S)-4-(2-(2-((cyclopropylmethyl)amino)quinolin-7-yl)ethyl)-2,3-dihydroxycyclopentyl)-1,7-dihydro-4H-pyrrolo[2,3-d]pyrimidin-4-one oxime]: the figures for the IC50 (on PRMT5/MEP50 complex; in test [1] (setting [2])) were 0.33 nM and 1.7 nM, respectively. On the same counts, the results for `CN/N=c1\nc[nH]c2c1ccn2[C@@H]1C[C@H](CCc2ccc3ccc(NCC4CC4)nc3c2)[C@@H](O)[C@H]1O` [Example 91-B, (1S,2R,3S,5R)-3-(2-(2-((cyclopropylmethyl)amino)quinolin-7-yl)ethyl)-5-((Z)-4-(2-methylhydrazineylidene)-1,4-dihydro-7H-pyrrolo[2,3-d]pyrimidin-7-yl)cyclopentane-1,2-diol] are 3.2 nM and 46.8 nM. Regarding `CO/N=c1\nc[nH]c2c1ccn2[C@@H]1C[C@H]([C@H](O)c2ccc(Cl)c(Cl)c2)[C@@H](O)[C@H]1O` [Example 92-B, 7-((1R,2S,3R,4R)-4-((S)-(3,4-dichlorophenyl)(hydroxy)methyl)-2,3-dihydroxycyclopentyl)-1,7-dihydro-4H-pyrrolo[2,3-d]pyrimidin-4-one O-methyl oxime], the IC50 stood at 19.9 nM on PRMT5/MEP50 complex and 335 nM in test [1] (setting [2]).

Turning to `CO/N=c1/nc[nH]c2c1ccn2[C@@H]1O[C@H]([C@](C)(O)c2ccc(Cl)c(F)c2)[C@@H](O)[C@H]1O` [Example 96], the IC50 in test [1] (72 h, Granta-519 cell line) worked out at 142 nM.
